From article PMC12717121, “ABA-independent PP2C-binding in PYLs traces to bacterial origins and persists in land plants” (Nature Communications, 2025)

How the values were obtained:
ABI1 (AtABI1) = target: T1, ABI1 (AtABI1) (Arabidopsis thaliana, UniProt P49597); assay: phosphatase assay, A405; format: biochemical; conditions: 50 mM pNPP, 0.5 μM PP2C, 33 mM Tris-OAc pH 7.9, 25 mM Mg(OAc)2
T1 construct: GST-ABI1 (pGEX-6P-1), E. coli BL21(DE3)
T1 sequence (P49597 1-434): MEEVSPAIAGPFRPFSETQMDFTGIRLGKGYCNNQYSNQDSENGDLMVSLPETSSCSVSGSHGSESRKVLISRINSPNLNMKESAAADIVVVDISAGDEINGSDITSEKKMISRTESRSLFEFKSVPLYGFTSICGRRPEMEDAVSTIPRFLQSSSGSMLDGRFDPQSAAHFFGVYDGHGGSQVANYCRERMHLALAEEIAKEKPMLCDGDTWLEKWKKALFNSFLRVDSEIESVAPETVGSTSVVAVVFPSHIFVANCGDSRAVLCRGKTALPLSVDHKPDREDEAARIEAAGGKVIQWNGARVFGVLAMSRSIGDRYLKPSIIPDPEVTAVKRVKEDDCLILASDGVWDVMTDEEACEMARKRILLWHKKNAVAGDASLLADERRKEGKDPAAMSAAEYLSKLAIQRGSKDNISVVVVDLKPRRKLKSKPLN

PP2CA (AtPP2CA) = target: T2, PP2CA (AtPP2CA) (Arabidopsis thaliana, UniProt P49598); assay: phosphatase assay, A405; format: biochemical; conditions: 50 mM pNPP, 0.5 μM PP2C, 33 mM Tris-OAc pH 7.9, 25 mM Mg(OAc)2
T2 construct: GST-PP2CA (pGEX-6P-1), E. coli BL21(DE3)
T2 sequence (P49598 1-399): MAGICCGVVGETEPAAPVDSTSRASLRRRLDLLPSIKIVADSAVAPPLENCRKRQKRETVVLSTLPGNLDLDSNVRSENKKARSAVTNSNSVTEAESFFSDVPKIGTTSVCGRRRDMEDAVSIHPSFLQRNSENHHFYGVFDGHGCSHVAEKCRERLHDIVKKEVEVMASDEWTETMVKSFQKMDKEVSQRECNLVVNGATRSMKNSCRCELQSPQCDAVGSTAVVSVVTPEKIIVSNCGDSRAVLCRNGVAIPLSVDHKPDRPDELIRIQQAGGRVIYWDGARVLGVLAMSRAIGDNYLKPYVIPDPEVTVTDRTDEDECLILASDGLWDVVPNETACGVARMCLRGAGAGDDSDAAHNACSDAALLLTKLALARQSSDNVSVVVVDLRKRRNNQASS

O=[N+]([O-])c1ccc(OP(=O)(O)O)cc1 [pNPP]
phosphatase assay, A405 (ABI1 (AtABI1)): Initial reaction velocities for GST-PP2Cs were measured using the synthetic phosphatase substrate pNPP
phosphatase assay, A405 (PP2CA (AtPP2CA)): Initial reaction velocities for GST-PP2Cs were measured using the synthetic phosphatase substrate pNPP
